According to patent publication US8097629B2, “Dihydropyridinone derivatives” (Bayer Pharma Aktiengesellschaft, priority 2004, dated 2012):

Experiments:
[1] = system: human polymorphonuclear cells (PMNs); assay: In vitro PMN elastolysis assay; assay type: cell-based; conditions: mean±s.e.m.
Experimental: In vitro PMN Elastolysis Assay:
This assay is used to determine the elastolytic potential of human polymorphonuclear cells (PMNs) and assess the proportion of degradation due to neutrophil elastase [cf. Z. W. She et al., Am. J Respir. Cell. Mol. Biol. 9, 386-392 (1993)].
Tritiated elastin, in suspension, is coated on to a 96 well plate at 10 μg per well. Test and reference [ZD-0892 (J. Med. Chem. 40, 1876-1885, 3173-3181 (1997), WO 95/21855) and α1 protease inhibitor (α1PI)] compounds are added to the wells at the appropriate concentrations. Human PMNs are separated from peripheral venous blood of healthy donors and resuspended in culture media. The neutrophils are added to the coated wells at concentrations ranging between 1×10^6 to 1×10^5 cells per well. Porcine pancreatic elastase (1.3 μM) is used as a positive control for the assay, and α1PI (1.2 μM) is used as the positive inhibitor of neutrophil elastase. The cellular, control is PMNs without compound at each appropriate cell density. The cells plus compounds are incubated in a humidified incubator at 37° C. for 4 hours. The plates are centrifuged to allow the harvest of cell supernatant only. The supernatant is transferred in 75 μl volumes to corresponding wells of a 96 well Lumaplate™ (solid scintillant containing plates). The plates are dried until no liquid is visible in the wells and read in a beta counter for 3 minutes per well. […]

[2] = biological target: T1, human neutrophil elastase (HNE) (Homo sapiens, UniProt P08246); assay: In vitro inhibition of HNE using a fluorogenic peptide substrate; assay type: biochemical; conditions: substrate MeOSuc-Ala-Ala-Pro-Val-AMC, 384 MTP format
T1 construct: purchased SERVA Electrophoresis GmbH, Heidelberg, Germany #20927.01
T1 sequence (P08246 30-267): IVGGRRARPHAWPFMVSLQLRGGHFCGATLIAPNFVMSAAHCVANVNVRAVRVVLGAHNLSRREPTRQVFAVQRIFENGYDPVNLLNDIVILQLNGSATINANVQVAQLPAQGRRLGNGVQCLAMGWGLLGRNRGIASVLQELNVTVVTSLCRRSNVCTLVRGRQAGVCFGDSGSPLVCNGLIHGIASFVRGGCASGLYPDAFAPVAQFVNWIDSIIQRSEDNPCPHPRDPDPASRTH
Experimental: I. In vitro Enzyme Assays of Human Neutrophil Elastase (HNE)
assay buffer: 0.1 M HEPES-NaOH buffer pH 7.4, 0.5 M NaCl, 0.1% (w/v) bovine serum albumin;
suitable concentration (see below) of HNE (18 U/mg lyophil., #20927.01, SERVA Electrophoresis GmbH, Heidelberg, Germany) in assay buffer;
suitable concentration (see below) of substrate in assay buffer;
suitable concentration of test compounds diluted with assay buffer from a 10 mM stock solution in DMSO.
In vitro Inhibition of HNE Using a Fluorogenic Peptide Substrate (Continuous Read-out Signal, 384 MTP Assay Format):
In this protocol, the elastase substrate MeOSuc-Ala-Ala-Pro-Val-AMC (#324740, Calbiochem-Novabiochem Corporation, Merck KGaA, Darmstadt, Germany) is used. The test solution is prepared by mixing 10 μl of test compound dilution, 20 μl of HNE enzyme dilution (final concentration 8-0.4 μU/ml, routinely 2.1 μU/ml) and 20 μl of substrate dilution (final concentration 1 mM-1 μM, routinely 20 μM), respectively. The solution is incubated for 0-2 hrs at 37° C. (routinely one hour). The fluorescence of the liberated AMC due to the enzymatic reaction is measured at 37° C. (TECAN spectra fluor plus plate reader). The rate of increase of the fluorescence (ex. 395 nm, em. 460 nm) is proportional to elastase activity. IC50 values are determined by RFU-versus-[I] plots. Km and Km(app.) values are determined by Lineweaver-Burk plots and converted to Ki values by Dixon plots.

IC50 [2] [nM] | Compound | also measured
 | α1PI: α1 protease inhibitor, used as the positive inhibitor of neutrophil elastase | inhibition of 3H-elastin elastolysis ([1]; at 1.2 μM, n=3 different donors at 3.6×10^5 cells per well): 83.46±3.97%
60 | CCOC(=O)N1CCN(C(=O)C2C(=O)N(c3cccc(C(F)(F)F)c3)C(C)=C(C(C)=O)C2c2ccc(C#N)cc2)CC1 (centres unmarked) [Example 54] | 
70 | CC(=O)C1=C(C)N(c2cccc(C(F)(F)F)c2)C(=O)C(C(=O)N2CCN(CCN3CCOCC3)CC2)C1c1ccc(C#N)cc1 (centres unmarked) [Example 45] | 
 | COc1ccc(C(=O)N[C@H](C(=O)N2CCC[C@H]2C(=O)N[C@H](C(=O)C(F)(F)F)C(C)C)C(C)C)cc1 [ZD-0892] | IC50 ([1]; n=2 different donors at 3.6×10^5 cells per well): 45.5 ± 7.75 nM
30 | CC(=O)C1=C(C)N(c2cccc(C(F)(F)F)c2)C(=O)C(C(=O)N(C)c2cccc(C)c2)C1c1ccc(C#N)cc1 (centres unmarked) [Example 27] | 
60 | CC(=O)C1=C(C)N(c2cccc(C(F)(F)F)c2)C(=O)C(C(=O)N2CCN3CCCC3C2)C1c1ccc(C#N)cc1 (centres unmarked) [Example 34] | 
40 | COc1ccc(CN(C)C(=O)C2C(=O)N(c3cccc(C(F)(F)F)c3)C(C)=C(C(C)=O)C2c2ccc(C#N)cc2)cc1 (centres unmarked) [Example 19] | 
50 | COCCOCCCNC(=O)C1C(=O)N(c2cccc(C(F)(F)F)c2)C(C)=C(C(C)=O)C1c1ccc(C#N)cc1 (centres unmarked) [Example 61] | 
